Source: ChEMBL document CHEMBL4342407, “Thieno[2,3-d]pyrimidine as a promising scaffold in medicinal chemistry: Recent advances” (Bioorg Med Chem, 2019)

Experiments:
[1] = tested on: Rattus norvegicus; assay: Antiinflammatory activity in gamma irradiated rat assessed as reduction in serum IL-6 level at 150 mg/kg, ip administered once daily for 7 consecutive days by ELISA (reference value: 103.87 +/- 3.273 pg/ml); assay type: functional
[2] = tested on: Rattus norvegicus; assay: Antiinflammatory activity in gamma irradiated rat assessed as reduction in COX-2 level in liver tissue homogenates at 150 mg/kg, ip administered once daily for 7 consecutive days by ELISA (reference value: 89.50 +/- 2.617 ng/ml); assay type: functional
[3] = tested on: Rattus norvegicus; assay: Antiinflammatory activity in gamma irradiated rat assessed as reduction in serum TNFalpha level at 150 mg/kg, ip administered once daily for 7 consecutive days by ELISA (reference value: 105.07 +/- 3.925 pg/ml); assay type: functional
[4] = tested on: Rattus norvegicus; assay: Antiinflammatory activity in gamma irradiated rat assessed as reduction in NFkappaB level in liver tissue homogenates at 150 mg/kg, ip administered once daily for 7 consecutive days by ELISA (reference value: 258.33 +/- 4.216 pg/ml); assay type: functional
[5] = tested on: Human alphaherpesvirus 1; assay: Antiviral activity against Herpes simplex virus 1 at 20 ug/10^5; assay type: functional
[6] = Ulcerogenic activity in Sprague-Dawley rat assessed as ulcer index at 20 mg/kg, ip pretreated followed by pylorus ligation and measured at 4 hrs post ligation; assay type: toxicity, organism-based; conditions: in vivo
[7] = tested on: Mus musculus; assay: Analgesic activity in Swiss albino mouse assessed as protection against acetic acid-induced writhing at 15 mg/kg, po pretreated for 30 mins followed by acetic acid challenge and measured after 20 mins relative to control; assay type: functional
[8] = tested on: Rattus norvegicus; assay: Antiinflammatory activity in Sprague-Dawley rat assessed as inhibition of carrageenan-induced edema at 15 mg/kg, po pretreated for 1 hr followed by carrageenan challenge and measured after 4 hrs by mercury plethysmometer relative to control; assay type: functional
[9] = biological target: Cyclin-dependent kinase 4/cyclin D1 (Homo sapiens, UniProt P11802); assay: Inhibition of CDK4/cyclin D1 (unknown origin) expressed in baculovirus infected Sf9 insect cells using GST-Rb as substrate in presence of [33P] ATP incubated for 30 mins
[10] = biological target: Cyclin-dependent kinase 2/cyclin E1 (Homo sapiens, UniProt P24941); assay: Inhibition of CDK2/cyclin E (unknown origin) expressed in baculovirus infected Sf9 insect cells using GST-Rb as substrate in presence of [33P] ATP incubated for 30 mins
[11] = species on record: Homo sapiens; assay: Selectivity ratio of IC50 for CDK2/cyclin E (unknown origin) expressed in baculovirus infected Sf9 insect cells to IC50 for CDK4/cyclin D1 (unknown origin) expressed in baculovirus infected Sf9 insect cells
[12] = Inhibition of Influenza A virus H3N2 Neuraminidase
[13] = biological target: T1, Adenosine receptor A3 (Homo sapiens, UniProt P0DMS8); assay: Displacement of [3H]-HEMADO from human A3 receptor expressed in CHO cells by radioligand competitive binding assay; assay type: cell-based
T1 sequence (P0DMS8 whole entry): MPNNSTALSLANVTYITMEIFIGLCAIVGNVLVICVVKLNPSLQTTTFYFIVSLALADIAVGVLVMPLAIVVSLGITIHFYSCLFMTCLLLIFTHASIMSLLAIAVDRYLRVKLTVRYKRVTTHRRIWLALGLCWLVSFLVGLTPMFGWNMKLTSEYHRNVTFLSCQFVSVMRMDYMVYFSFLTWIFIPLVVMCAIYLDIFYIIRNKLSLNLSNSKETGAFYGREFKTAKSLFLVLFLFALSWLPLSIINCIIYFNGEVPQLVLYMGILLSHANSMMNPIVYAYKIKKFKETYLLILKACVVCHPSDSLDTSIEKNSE

[14] = species on record: Homo sapiens; assay: Selectivity ratio of Ki for human A2A receptor expressed in CHO cells to Ki for human A3 receptor expressed in CHO cells; assay type: cell-based
[15] = species on record: Homo sapiens; assay: Selectivity ratio of Ki for human A1 receptor expressed in CHO cells to Ki for human A2A receptor expressed in CHO cells; assay type: cell-based
[16] = biological target: Adenosine receptor A2a (Homo sapiens, UniProt P29274); assay: Displacement of [3H]-NECA from human A2A receptor expressed in CHO cells by radioligand competitive binding assay; assay type: cell-based
[17] = biological target: T2, Adenosine receptor A1 (Homo sapiens, UniProt P30542); assay: Displacement of [3H]-CCPA binding from human A1 receptor expressed in CHO cells by radioligand competitive binding assay; assay type: cell-based
T2 sequence (P30542 whole entry): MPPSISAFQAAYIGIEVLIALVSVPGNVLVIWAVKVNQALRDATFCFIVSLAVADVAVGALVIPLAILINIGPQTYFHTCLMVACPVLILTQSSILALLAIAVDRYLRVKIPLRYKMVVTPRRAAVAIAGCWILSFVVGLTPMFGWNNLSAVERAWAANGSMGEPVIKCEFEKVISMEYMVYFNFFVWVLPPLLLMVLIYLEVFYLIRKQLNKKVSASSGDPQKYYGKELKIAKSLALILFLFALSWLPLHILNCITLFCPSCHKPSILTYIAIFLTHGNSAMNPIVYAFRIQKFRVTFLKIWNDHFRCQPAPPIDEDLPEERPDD

[18] = species on record: Homo sapiens; assay: Selectivity ratio of Ki for human A1 receptor expressed in CHO cells to Ki for human A3 receptor expressed in CHO cells; assay type: cell-based
[19] = tested on: Human alphaherpesvirus 1; assay: Antiviral activity against Herpes simplex virus 1 at 50 ug/10^5; assay type: functional
[20] = tested on: MDA-MB-453; assay: Antiproliferative activity against human MDA-MB-453 after 48 hrs by MTT assay; assay type: functional; conditions: MDA-MB-453, 48 h
[21] = tested on: DU-145; assay: Antiproliferative activity against human DU145 after 48 hrs by MTT assay; assay type: functional; conditions: DU-145, 48 h
[22] = tested on: BT-549; assay: Antiproliferative activity against human BT549 after 48 hrs by MTT assay; assay type: functional; conditions: BT-549, 48 h
[23] = tested on: HT-29; assay: Antiproliferative activity against human HT-29 after 48 hrs by MTT assay; assay type: functional; conditions: HT-29, 48 h
[24] = tested on: A549; assay: Antiproliferative activity against human A549 after 48 hrs by MTT assay; assay type: functional; conditions: A549, 48 h
[25] = tested on: MCF7; assay: Antiproliferative activity against human MCF7 after 48 hrs by MTT assay; assay type: functional; conditions: MCF7, 48 h
[26] = tested on: HCT-15; assay: Antiproliferative activity against human HCT15 after 48 hrs by MTT assay; assay type: functional; conditions: HCT-15, 48 h
[27] = tested on: HCT-116; assay: Antiproliferative activity against human HCT116 after 48 hrs by MTT assay; assay type: functional; conditions: HCT-116, 48 h
[28] = tested on: HCT-116; assay: Antiproliferative activity against human HCT116 after 18 hrs by MTT assay; assay type: functional, cell-based; conditions: HCT-116, 18 h
[29] = tested on: Hepatovirus A; assay: Antiviral activity against Hepatitis A virus infected in HepG2 cells assessed as virus inhibition at 40 ug/L incubated overnight with virus followed by inoculation and measured after 1 hr by crystal violet staining based plaque reduction assay; assay type: functional

Chain of Adenosine receptor A2a (P29274 whole entry): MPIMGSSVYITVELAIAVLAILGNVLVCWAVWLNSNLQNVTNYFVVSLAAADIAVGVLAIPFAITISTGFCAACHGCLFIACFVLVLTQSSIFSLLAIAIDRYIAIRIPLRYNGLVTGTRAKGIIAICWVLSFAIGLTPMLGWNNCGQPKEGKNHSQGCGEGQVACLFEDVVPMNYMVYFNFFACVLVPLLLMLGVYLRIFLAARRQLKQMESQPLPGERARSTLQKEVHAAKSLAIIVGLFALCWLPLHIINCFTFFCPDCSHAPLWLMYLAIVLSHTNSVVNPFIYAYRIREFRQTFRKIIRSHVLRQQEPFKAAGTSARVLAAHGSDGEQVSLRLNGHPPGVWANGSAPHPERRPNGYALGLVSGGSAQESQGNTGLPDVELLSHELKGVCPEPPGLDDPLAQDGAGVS
Chain of Cyclin-dependent kinase 4/cyclin D1 (P11802 whole entry): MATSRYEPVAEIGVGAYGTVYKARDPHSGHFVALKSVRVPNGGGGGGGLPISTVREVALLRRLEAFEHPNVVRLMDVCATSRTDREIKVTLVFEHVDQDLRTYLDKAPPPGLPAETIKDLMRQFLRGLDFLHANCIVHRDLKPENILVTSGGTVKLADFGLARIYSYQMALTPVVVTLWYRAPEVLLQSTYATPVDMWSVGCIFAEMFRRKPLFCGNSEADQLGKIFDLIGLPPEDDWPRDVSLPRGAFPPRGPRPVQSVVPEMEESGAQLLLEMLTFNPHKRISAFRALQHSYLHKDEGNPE
Chain of Cyclin-dependent kinase 4/cyclin D1 (P24385 whole entry, further chain): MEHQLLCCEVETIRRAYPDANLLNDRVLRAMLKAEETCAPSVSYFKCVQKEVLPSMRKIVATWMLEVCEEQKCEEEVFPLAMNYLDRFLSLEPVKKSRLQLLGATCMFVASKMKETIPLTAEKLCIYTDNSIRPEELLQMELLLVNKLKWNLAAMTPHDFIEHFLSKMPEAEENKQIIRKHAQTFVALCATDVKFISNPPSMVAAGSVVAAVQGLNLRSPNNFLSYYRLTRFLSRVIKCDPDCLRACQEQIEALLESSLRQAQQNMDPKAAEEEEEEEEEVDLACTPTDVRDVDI

CCOC(=O)c1sc2ncnc(NCC(=O)O)c2c1C
Serum IL-6 level [1]: 46.53 pg/mL | COX-2 level in liver homogenate [2]: 31.17 ng/mL | Serum TNFalpha level [3]: 48.32 pg/mL | NFkappaB level in liver tissue [4]: 89.83 pg/mL

Nc1nc2c(ncn2COCCO)c(=O)[nH]1 [ACYCLOVIR]
Activity [5]: 100%

CC(=O)Cc1c(C(C)C)sc2nc(C)[nH]c(=O)c12
UI [6]: 1.1 | Activity [7]: 59% | inhibition in vivo at 15 mg/kg [8]: 74.5%

CCC(C)c1cc2c(N/N=C/c3nc(CNC)cs3)ncnc2s1 (stereo unspecified)
IC50 [9]: 0.029 µM | IC50 [10]: 0.44 µM | Ratio IC50 [11]: 15.2

CCOC(=O)c1sc2ncnc(N[C@@H](CC(=O)O)C(=O)O)c2c1C
Serum IL-6 level [1]: 59.85 pg/mL | COX-2 level in liver homogenate [2]: 40.5 ng/mL | Serum TNFalpha level [3]: 51.35 pg/mL | NFkappaB level in liver tissue [4]: 88.17 pg/mL

O=C1c2ccccc2C(=O)N1Nc1nc(-c2c[nH]c3ccccc23)nc2sc3c(c12)CCCC3
IC50 [12]: 0.067 µM

CC(=O)Nc1nc2sc(C)c(C)c2c(=O)[nH]1
Ki [13]: 0.524 µM | Ratio Ki [14]: > 57 | Ratio Ki [15]: > 1 | Ki [16]: > 30 µM | Ki [17]: > 30 µM | Ratio Ki [18]: > 57

Cc1nc(SCCO)c2c3c(sc2n1)CCc1ccccc1-3
Activity [5]: 40% | Activity [19]: 75%

CC(N)c1csc(/C=N/Nc2ncnc3sc(C(C)(C)CF)cc23)n1 (stereo unspecified)
IC50 [9]: 0.046 µM | IC50 [10]: 0.68 µM | Ratio IC50 [11]: 14.7

O=C(/C=C/c1cccc(C(F)(F)F)c1)Nc1cccc(Nc2ncnc3sccc23)c1
GI50 [20]: 0.9 µM | GI50 [21]: 5.4 µM | GI50 [22]: 3.1 µM | GI50 [23]: > 10 µM | GI50 [24]: 4.6 µM | GI50 [25]: 0.8 µM | GI50 [26]: 5.1 µM | GI50 [27]: 5.8 µM

COCCSc1ncnc2sc3c(c12)-c1ccccc1CC3
Activity [5]: 15% | Activity [19]: 30%

CC(=O)Nc1nc2sc3c(c2c(=O)[nH]1)CCC3
Ki [13]: 1.35 µM | Ratio Ki [14]: > 22 | Ratio Ki [15]: > 3.3 | Ki [16]: > 30 µM | Ki [17]: > 100 µM | Ratio Ki [18]: > 74

O=C(Nc1cccc(Nc2ncnc3sccc23)c1)c1ccc(F)cc1
GI50 [20]: > 10 µM | GI50 [21]: 9.2 µM | GI50 [22]: 1.3 µM | GI50 [23]: > 10 µM | GI50 [24]: 4.3 µM | GI50 [25]: 1.6 µM | GI50 [26]: > 10 µM | GI50 [27]: 10.2 µM

CCc1cc2c(OCc3cc(-c4ccc(OC)cc4)no3)ncnc2s1
IC50 [28]: 112 µM

CCOC(=O)c1sc2ncnc(N[C@@H](CCSC)C(=O)O)c2c1C
Serum IL-6 level [1]: 45.72 pg/mL | COX-2 level in liver homogenate [2]: 28.5 ng/mL | Serum TNFalpha level [3]: 38.5 pg/mL | NFkappaB level in liver tissue [4]: 66.17 pg/mL

CC(=O)Cc1c(C(C)C)sc2nc(S)[nH]c(=S)c12
UI [6]: 1.1 | Activity [7]: 60% | inhibition in vivo at 15 mg/kg [8]: 71.6%

O=CC1CN(c2nc(-c3c[nH]c4ccccc34)nc3sc4c(c23)CCCC4)N=C1c1ccccc1 (stereo unspecified)
IC50 [12]: 0.089 µM

CC(=O)OC[C@H]1O[C@@H](Sc2nc3sc4c(c3c(=O)n2C)CCCCC4)[C@H](OC(C)=O)[C@@H](OC(C)=O)[C@@H]1OC(C)=O
inhibition (INH) [29]: 50%
